{
  "source": "ChEMBL document CHEMBL3232998",
  "about": "“Spiromastixones A-O, antibacterial chlorodepsidones from a deep-sea-derived Spiromastix sp. fungus” (J Nat Prod, 2014)",
  "key": {"[1]": {"tested_on": "Staphylococcus aureus", "assay": "Antibacterial activity against Staphylococcus aureus ATCC 29213 after 18 hrs by broth microdilution method", "format": "functional", "conditions": "ATCC 29213, 18 h"}, "[2]": {"tested_on": "Bacillus thuringiensis", "assay": "Antibacterial activity against Bacillus thuringiensis SCSIO BT01 after 18 hrs by broth microdilution method", "format": "functional", "conditions": "SCSIO BT01, 18 h"}, "[3]": {"tested_on": "Bacillus subtilis", "assay": "Antibacterial activity against Bacillus subtilis SCSIO BS01 after 18 hrs by broth microdilution method", "format": "functional", "conditions": "SCSIO BS01, 18 h"}, "[4]": {"tested_on": "Escherichia coli", "assay": "Antibacterial activity against Escherichia coli ATCC 25922 after 18 hrs by broth microdilution method", "format": "functional", "conditions": "ATCC 25922, 18 h"}, "[5]": {"tested_on": "Staphylococcus aureus", "assay": "Antibacterial activity against methicillin-sensitive Staphylococcus aureus ATCC 29213 after 18 hrs by broth microdilution method", "format": "functional, organism-based", "conditions": "ATCC 29213, 18 h, read-out: IC50"}, "[6]": {"tested_on": "Staphylococcus aureus", "assay": "Antibacterial activity against methicillin-resistant Staphylococcus aureus ATCC 33591 after 18 hrs by broth microdilution method", "format": "functional, organism-based", "conditions": "ATCC 33591, 18 h, read-out: IC50"}, "[7]": {"tested_on": "Staphylococcus aureus", "assay": "Antibacterial activity against methicillin-sensitive Staphylococcus aureus 15 after 18 hrs by broth microdilution method", "format": "functional, organism-based", "conditions": "Staphylococcus aureus, 15, 18 h; read-out: IC50"}, "[8]": {"tested_on": "Staphylococcus aureus", "assay": "Antibacterial activity against methicillin-sensitive Staphylococcus aureus 12-28 after 18 hrs by broth microdilution method", "format": "functional, organism-based", "conditions": "12-28, 18 h"}, "[9]": {"tested_on": "Staphylococcus aureus", "assay": "Antibacterial activity against methicillin-resistant Staphylococcus aureus 12-33 after 18 hrs by broth microdilution method", "format": "functional, organism-based", "conditions": "12-33, 18 h, read-out: IC50"}, "[10]": {"tested_on": "Staphylococcus epidermidis", "assay": "Antibacterial activity against methicillin-sensitive Staphylococcus epidermidis ATCC 12228 after 18 hrs by broth microdilution method", "format": "functional, organism-based", "conditions": "ATCC 12228, 18 h, read-out: IC50"}, "[11]": {"tested_on": "Staphylococcus epidermidis", "assay": "Antibacterial activity against methicillin-sensitive Staphylococcus epidermidis 12-6 after 18 hrs by broth microdilution method", "format": "functional, organism-based", "conditions": "12-6, 18 h"}, "[12]": {"tested_on": "Staphylococcus epidermidis", "assay": "Antibacterial activity against methicillin-resistant Staphylococcus epidermidis 12-8 after 18 hrs by broth microdilution method", "format": "functional, organism-based", "conditions": "12-8, 18 h, read-out: IC50"}, "[13]": {"tested_on": "Enterococcus faecalis", "assay": "Antibacterial activity against vancomycin-sensitive Enterococcus faecalis ATCC 29212 after 18 hrs by broth microdilution method", "format": "functional, organism-based", "conditions": "ATCC 29212, 18 h, read-out: IC50"}, "[14]": {"tested_on": "Enterococcus faecalis", "assay": "Antibacterial activity against vancomycin-resistant Enterococcus faecalis ATCC 51299 after 18 hrs by broth microdilution method", "format": "functional, organism-based", "conditions": "ATCC 51299, 18 h, read-out: IC50"}, "[15]": {"tested_on": "Enterococcus faecalis", "assay": "Antibacterial activity against vancomycin-sensitive Enterococcus faecalis 12-5 after 18 hrs by broth microdilution method", "format": "functional, organism-based", "conditions": "12-5, 18 h, read-out: IC50"}, "[16]": {"tested_on": "Enterococcus faecalis", "assay": "Antibacterial activity against vancomycin-resistant Enterococcus faecalis 09-9 after 18 hrs by broth microdilution method", "format": "functional, organism-based", "conditions": "09-9, 18 h, read-out: IC50"}, "[17]": {"tested_on": "Enterococcus faecium", "assay": "Antibacterial activity against vancomycin-resistant Enterococcus faecium ATCC 700221 after 18 hrs by broth microdilution method", "format": "functional, organism-based", "conditions": "ATCC 700221, 18 h, read-out: IC50"}, "[18]": {"tested_on": "Enterococcus faecium", "assay": "Antibacterial activity against vancomycin-resistant Enterococcus faecium 12-1 after 18 hrs by broth microdilution method", "format": "functional, organism-based", "conditions": "12-1, 18 h, read-out: IC50"}, "[19]": {"tested_on": "Enterococcus faecium", "assay": "Antibacterial activity against vancomycin-sensitive Enterococcus faecium 12-3 after 18 hrs by broth microdilution method", "format": "functional, organism-based", "conditions": "12-3, 18 h, read-out: IC50"}, "[20]": {"tested_on": "Escherichia coli", "assay": "Antibacterial activity against extended spectrum beta-lactamase-deficient Escherichia coli ATCC 25922 after 18 hrs by broth microdilution method", "format": "functional, organism-based", "conditions": "ATCC 25922, 18 h, read-out: IC50"}, "[21]": {"tested_on": "Escherichia coli", "assay": "Antibacterial activity against extended spectrum beta-lactamase-deficient Escherichia coli 1515 after 18 hrs by broth microdilution method", "format": "functional, organism-based", "conditions": "Escherichia coli, 1515, 18 h"}, "[22]": {"tested_on": "Escherichia coli", "assay": "Antibacterial activity against extended spectrum beta-lactamase-deficient Escherichia coli 12-14 after 18 hrs by broth microdilution method", "format": "functional, organism-based", "conditions": "12-14, 18 h, read-out: IC50"}, "[23]": {"tested_on": "Escherichia coli", "assay": "Antibacterial activity against extended spectrum beta-lactamase producing Escherichia coli 12-15 after 18 hrs by broth microdilution method", "format": "functional, organism-based", "conditions": "12-15, 18 h, read-out: IC50"}, "[24]": {"tested_on": "Klebsiella pneumoniae", "assay": "Antibacterial activity against extended spectrum beta-lactamase producing Klebsiella pneumoniae ATCC 700603 after 18 hrs by broth microdilution method", "format": "functional, organism-based", "conditions": "ATCC 700603, 18 h"}, "[25]": {"tested_on": "Klebsiella pneumoniae", "assay": "Antibacterial activity against extended spectrum beta-lactamase-deficient Klebsiella pneumoniae 7 after 18 hrs by broth microdilution method", "format": "functional, organism-based", "conditions": "Klebsiella pneumoniae, 7, 18 h; read-out: IC50"}, "[26]": {"tested_on": "Klebsiella pneumoniae", "assay": "Antibacterial activity against NDM-1 producing Klebsiella pneumoniae ATCC BAA-2146 after 18 hrs by broth microdilution method", "format": "functional, organism-based", "conditions": "ATCC BAA-2146, 18 h, read-out: IC50"}, "[27]": {"tested_on": "Klebsiella pneumoniae", "assay": "Antibacterial activity against extended spectrum beta-lactamase-deficient Klebsiella pneumoniae 12-4 after 18 hrs by broth microdilution method", "format": "functional, organism-based", "conditions": "12-4, 18 h"}, "[28]": {"tested_on": "Klebsiella pneumoniae", "assay": "Antibacterial activity against extended spectrum beta-lactamase producing Klebsiella pneumoniae 12-8 after 18 hrs by broth microdilution method", "format": "functional, organism-based", "conditions": "12-8, 18 h, read-out: IC50"}, "[29]": {"tested_on": "Staphylococcus aureus", "assay": "Ratio of levofloxacin IC50 to compound IC50 for methicillin-resistant Staphylococcus aureus 12-33 after 18 hrs by broth microdilution method", "format": "functional"}},
  "data": [
    {"smiles": "CCCc1c(Cl)c(OC)c(Cl)c2c1Oc1c(Cl)c(O)c(Cl)c(CCC)c1C(=O)O2", "values": [
      {"measurement": "MIC", "setting": "[1]", "result": 0.125, "unit": "µg/mL"},
      {"measurement": "MIC", "setting": "[2]", "result": 0.25, "unit": "µg/mL"},
      {"measurement": "MIC", "setting": "[3]", "result": 0.125, "unit": "µg/mL"},
      {"measurement": "MIC", "setting": "[4]", "result": "> 128", "unit": "µg/mL"},
      {"measurement": "MIC", "setting": "[5]", "result": 4, "unit": "µM"},
      {"measurement": "MIC", "setting": "[6]", "result": 2, "unit": "µM"},
      {"measurement": "MIC", "setting": "[7]", "result": 2, "unit": "µM"},
      {"measurement": "IC50", "setting": "[8]", "result": 4, "unit": "µM"},
      {"measurement": "MIC", "setting": "[9]", "result": 4, "unit": "µM"},
      {"measurement": "MIC", "setting": "[10]", "result": 4, "unit": "µM"},
      {"measurement": "IC50", "setting": "[11]", "result": 2, "unit": "µM"},
      {"measurement": "MIC", "setting": "[12]", "result": 1, "unit": "µM"},
      {"measurement": "MIC", "setting": "[13]", "result": 4, "unit": "µM"},
      {"measurement": "MIC", "setting": "[14]", "result": 4, "unit": "µM"},
      {"measurement": "MIC", "setting": "[15]", "result": 4, "unit": "µM"},
      {"measurement": "MIC", "setting": "[16]", "result": 4, "unit": "µM"},
      {"measurement": "MIC", "setting": "[17]", "result": 4, "unit": "µM"},
      {"measurement": "MIC", "setting": "[18]", "result": 4, "unit": "µM"},
      {"measurement": "MIC", "setting": "[19]", "result": 4, "unit": "µM"},
      {"measurement": "MIC", "setting": "[20]", "result": "> 256", "unit": "µM"},
      {"measurement": "IC50", "setting": "[21]", "result": "> 256", "unit": "µM"},
      {"measurement": "MIC", "setting": "[22]", "result": "> 256", "unit": "µM"},
      {"measurement": "MIC", "setting": "[23]", "result": "> 256", "unit": "µM"},
      {"measurement": "IC50", "setting": "[24]", "result": "> 256", "unit": "µM"},
      {"measurement": "MIC", "setting": "[25]", "result": "> 256", "unit": "µM"},
      {"measurement": "MIC", "setting": "[26]", "result": "> 256", "unit": "µM"},
      {"measurement": "IC50", "setting": "[27]", "result": "> 256", "unit": "µM"},
      {"measurement": "MIC", "setting": "[28]", "result": "> 256", "unit": "µM"},
      {"measurement": "Ratio IC50", "setting": "[29]", "result": 2}
    ]}
  ]
}
